The source of these data is article PMC7614227, “Structural Basis of Mammalian Respiratory Complex I Inhibition by Medicinal Biguanides” (Science (New York, N.Y.), 2023).

Experiment [1] has as its target T1, complex I catalysis in bovine heart mitochondrial membranes (Bos taurus, UniProt P03887+P03898+P17694+P42026).
T1 construct: Fresh cow hearts were purchased from an abattoir; tissue C; Humphreys and Sons, Chelmsford, U.K. (abattoir); host or cells: bovine heart mitochondrial membranes
Nature of the experiment: NADH:O2 oxidoreduction by bovine heart mitochondrial membranes. The class given is biochemical.

The target in experiment [2] is T2, detergent-solubilized, purified bovine complex I (Bos taurus, UniProt P03887+P03898+P17694+P42026).
T2 construct: from tissue; host or cells: bovine heart mitochondrial membranes, solubilized in DDM, Q-Sepharose and Superose 6 chromatography
Briefly: NADH:decylubiquinone (NADH:DQ) oxidoreduction by purified complex I. The class given is biochemical. The protocol:
(§1) and filtered (0.2 µM). The complexes were then separated by ion-exchange chromatography (Q-
(§2) Sepharose, GE Healthcare, as described previously (62)) and complex I-containing fractions
(§3) pooled and concentrated using a 50 kDa MWCO spin column (Merck Millipore). The samples
(§4) were clarified using a Spin-X 0.22 µm centrifugal filter (Corning) then applied to a Superose 6
(§5) Increase 5/150 (inhibitor-free dataset) or 10/300 column (biguanide-inhibited dataset) (GE
(§6) Healthcare) and eluted in 20 mM Tris-HCl (pH 7.14 at 20 ° C), 150 mM NaCl and 0.05% DDM.
(§7) Complex I elutes as a monodisperse peak at ~ 1.6 or 13 mL from the superose 6 increase 5/150 or
(§8) 10/300 columns, respectively (Fig. S3). The peak fractions for the biguanide-inhibited dataset were
(§9) concentrated using a 50 kDa MWCO spin column (Merck Millipore) and the protein concentration
(§10) quantified using a nanodrop UV-vis spectrophotometer (e280 = 0.2 mg-1 mL); IM1092 was then […]
(§11) µg of purified complex I was reduced with 10 mM dithiothreitol and analyzed on a Novex Tris- […]
(§12) NADH:O2 oxidoreduction by membranes was measured at 10 µg-protein mL-1 using 200 μM […]
(§13) assays. NADH:decylubiquinone (NADH:DQ) oxidoreduction by complex I was measured at 0.5 […]
(§14) measured by linear regression of the maximal slope and quantified by the absorbance of NADH at […]
(§15) was determined to evaluate the active/deactive ratio by incubating the membranes (2 mg-protein […]

Experiment [3] deals with HEPG2 C3A cells. Nature of the experiment: Cellular oxygen consumption (Seahorse XFe96, rotenone-sensitive OCR). Type of experiment: cell-based. The protocol:
from the weighed sample (1.15 mg) and solvent (0.78956g) masses of 4.31 mM, implying a purity of 93%. The proton NMR spectrum is consistent with the presented chemical structure and with the described shifts for this compound (27). The shifts observed here were ¹H NMR (DMSO, 400 […]
Cellular oxygen consumption measurements
HEPG2 C3A (ATCC CRL10741) cells were a kind gift from AstraZeneca and were authenticated by STR profiling (Eurofins). Cells were grown in Dulbecco's modified Eagle's medium (DMEM, Thermo Fisher Scientific) containing 10 mM glucose supplemented with 10% fetal bovine serum (Thermo Fisher Scientific) at 37 °C in 5% CO2. Per well, 2×10^4 cells were plated into an XFe96 (Agilent) cell plate and incubated for 24 h at 37 °C in 5% CO2. […] OCRs (oxygen consumption rates) were measured in a XFe96 Seahorse extracellular flux analyzer; 2 μM rotenone was used to inhibit complex I at the end of the assay. To calculate the normalized rotenone-sensitive OCR rates, the rotenone-insensitive rates (determined at the end of the experiment) were subtracted, and the traces normalized to 100% at the measurement before IM1092 addition. […] IC50 values were calculated using the normalized rates, following 6 hours of incubation […]

In experiment [4] the test system is T3, complex I in bovine heart mitochondrial membranes.
T3 construct: Fresh cow hearts were purchased from an abattoir; tissue C; Humphreys and Sons, Chelmsford, U.K. (abattoir); host or cells: bovine heart mitochondrial membranes
Briefly: NEM sensitivity of NADH:O2 activity (active/deactive ratio). The class given is biochemical. The note with it: as-prepared membranes incubated with 200 μM IM1092 and NEM at 4 °C. On the procedure:
as §1, §2, §3, §4, §5, §6, §7, §8, §9, §10, §11, §12, §13, §14, §15

Experiment [5] deals with mitochondrial glycerophosphate dehydrogenase (mGPD). The note with it: cited from earlier work.
[6] abbreviates: Fig. 1B, membranes of differing deactive complex I content, 1st labelled value (deactive content not given).
Where [7] appears, read: Fig. 1B, membranes of differing deactive complex I content, 2nd labelled value (deactive content not given).
Where [8] appears, read: Fig. 1B, membranes of differing deactive complex I content, 3rd labelled value (deactive content not given).
[9] abbreviates: Fig. 1C, pH 9D(i): pH 9 deactivated membranes with antimycin A and AOX.
Where [10] appears, read: Fig. 1C, pH 9D: pH 9 deactivated membranes.

pIC50: −log10 of the molar value.

On to `N=C(N=C(N)N)NCCc1ccc(I)c(Cl)c1` [IM1092], for which the pIC50 in experiment [1] (setting [6]) was 4.49; in experiment [1] (setting [7]), 4.70; in experiment [1] (setting [8]), 5.40; in experiment [1] (Fig. 1C, pH 6), 4.37; in experiment [1] (Fig. 1C, pH 7), 4.57; in experiment [1] (Fig. 1C, pH 8) it was 4.68. Besides, the pIC50 in experiment [1] (Fig. 1C, pH 9) was 5.40; in experiment [1] (setting [9]) it was 6.09; in experiment [1] (setting [10]), 6.07; in experiment [2] (catalysis of detergent-solubilized, purified bovine complex I (NADH:DQ)), 4.07. Besides, the “control catalytic rate recovered after dilution into inhibitor-free assay buffer” value in experiment [2] (complex I incubated with 350 μM IM1092 as for cryo-EM grids, then diluted, reversibility) came to 98%. The “effect on cellular oxygen consumption” value in experiment [3] was “inhibits cellular oxygen consumption”. Also, the “deactive content of membranes” value in experiment [4] was “essentially the same deactive content as biguanide-free controls”.
On to `CN(C)C(=N)N=C(N)N` [Metformin, metformin, reference compound], for which the pIC50 was 1.00 in experiment [1] (setting [6]); 1.28 in experiment [1] (setting [7]); 1.48 in experiment [1] (setting [8]); 1.42 in experiment [1] (Fig. 1C, pH 8); 2.05 in experiment [1] (Fig. 1C, pH 9); 2.10 in experiment [1] (setting [9]). For the same molecule, the pIC50 in experiment [1] (setting [10]) was 1.82. For the same molecule, in experiment [5], the “inhibition of human mGPD” value is reported as “not to inhibit”.

Usually pIC50 stands for the IC50 on a negative log10 scale, so that one unit is a factor of ten. Low readings indicate a large IC50, high ones a small IC50.
